Reference: patent US20060178374A1, “Aminoheteroaryl compounds as protein kinase inhibitors” (AGOURON PHARMACEUTICALS, INC., priority 2004, published 2006)

Molecular target: HGFR (c-Met) (Homo sapiens, UniProt P08581)
Assay: HGFR Continuous-Coupled Spectrophotometric Assay
Assay type: biochemical
Conditions: for Ki: HGFR enzyme 50 nM, Met-2 peptide substrate, 37° C.; for inhibition at 1 µM: compound at 1 μM
Experimental: The general procedure is as follows: compounds and kinase assay reagents are introduced into test wells. The assay is initiated by addition of the kinase enzyme. Enzyme inhibitors reduce the measured activity of the enzyme.
In the continuous-coupled spectrophotometric assay the time-dependent production of ADP by the kinase is determined by analysis of the rate of consumption of NADH by measurement of the decrease in absorbance at 340 nm. As the PK produces ADP it is re-converted to ATP by reaction with phosphoenol pyruvate and pyruvate kinase. Pyruvate is also produced in this reaction. Pyruvate is subsequently converted to lactate by reaction with lactate dehydrogenase, which simultaneously converts NADH to NAD.
HGFR Continuous-Coupled Spectrophotometric Assay
This assay analyzes the tyrosine kinase activity of HGFR on the Met-2 substrate peptide, a peptide derived from the activation loop of the HGFR.
• 1. […] Dissolve up in 200 mM HEPES, pH 7.5 at 10 mM stock. • 3. 1 M PEP (phospho-enol-pyruvate) in 200 mM HEPES, pH 7.5 • 4. 100 mM NADH (B-Nicotinamide Adenine Dinucleotide, Reduced Form) in 200 mM HEPES, pH 7.5 • 5. 4 M MgCl2 (Magnesium Chloride) in ddH2O 6. 1 M DTT (Dithiothreitol) in 200 mM HEPES, pH 7.5 • 7. 15 Units/mL LDH (Lactic Dehydrogenase) • 8. 15 Units/mL PK (Pyruvate Kinase) • 9. 5M NaCl dissolved in ddH2O • 10. Tween-20 (Protein Grade) 10% Solution • 11. 1 M HEPES buffer: (N-[2-Hydroxethyl]piperazine-N-[2-ethanesulfonic acid]) Sodium Salt. Dissolve in ddH2O, adjust pH to 7.5, bring volume to 1 L. Filter at 0.1 μm. • 12. […] 100% DMSO (SIGMA) • 14. […] Beckman DU-650 w/ micro cell holders • 18. Beckman 4-position micro cell cuvette Procedure:
Prep Dilution Buffer (DB) for Enzyme (For 30 mL prep) • 1. DB final concentration is 2 mM DTT, 25 mM NaCl2, 5 mM MgCl2, 0.01% Tween-20, and 50 mM HEPES buffer, pH 7.5. • 2. Make up 50 mM HEPES by adding 1.5 mL 1 M HEPES into 28.1 mL of ddH2O. Add rest of the reagents. Into 50 mL conical vial, add 60 μL of 1M DTT, 150 μL 5M NaCl2, 150 μL 1M MgCl2, and 30 μL of 10% Tween-20 to give total volume of 30 mL. • 3. Vortex for 5-10 seconds. • 4. Aliquot out DB at 1 mL/tube and label tubes as “DB HGFR” • 5. Note: This can be prepared and stored ahead of time. • 6. Freeze un-used aliquots in microcentrifuge tubes at −20° C. freezer.
Prep Compounds • 1. For compound dilution plate, add 4 μL of 10 mM stock into column 1 of plate, and bring volume to 100 μL with 100% DMSO. • 2. Set up the Precision 2000 dilution method. A final concentration of 200 μM compound in 50% DMSO, 100 mM HEPES (1:2 serial dilution).
Prep Coupled Enzymatic Buffer:
1. Final concentration in assay:
• 2. For a 10 mL reaction buffer add 10 μL of 1M PEP, 33 μL of 100 mM NADH, 50 μL of 4M MgCl2, 20 μL of 1M DTT, 6 μL of 500 mM ATP, and […] of 10 mM Met-2 peptide into 100 mM HEPES buffer pH 7.5 and vortex/mix. • 3. Add coupling enzymes, LDH and PK, into reaction mix. Mix by gentle inversion.
1. Spectrophotometer settings:
• 2. Add 85 μL of CE reaction mix into each well of assay plate. • 3. Add 5 μL of diluted compound into a well of the assay plate. • 4. Add 5 μL of 50% DMSO for negative control into last column of assay plate. • 5. Mix with multi-channel pipettor or orbital shaker. • 6. Pre-incubate for 10 minutes at 37° C. • 7. Add 10 μL of 500 nM HGFR to each well of assay plate; the final HGFR concentration is 50 nM in a total final volume of 100 μL. • 8. Measure activity for 10 minutes at λ=340 nm and 37° C.
Ki data were obtained using the HGFR Continuous-Coupled Spectrophotometric Assay, and IC50 data were obtained using the Cellular HGFR Autophosphorylation Assay, both of which are described above.

Chain of HGFR (c-Met) (P08581 974-1390): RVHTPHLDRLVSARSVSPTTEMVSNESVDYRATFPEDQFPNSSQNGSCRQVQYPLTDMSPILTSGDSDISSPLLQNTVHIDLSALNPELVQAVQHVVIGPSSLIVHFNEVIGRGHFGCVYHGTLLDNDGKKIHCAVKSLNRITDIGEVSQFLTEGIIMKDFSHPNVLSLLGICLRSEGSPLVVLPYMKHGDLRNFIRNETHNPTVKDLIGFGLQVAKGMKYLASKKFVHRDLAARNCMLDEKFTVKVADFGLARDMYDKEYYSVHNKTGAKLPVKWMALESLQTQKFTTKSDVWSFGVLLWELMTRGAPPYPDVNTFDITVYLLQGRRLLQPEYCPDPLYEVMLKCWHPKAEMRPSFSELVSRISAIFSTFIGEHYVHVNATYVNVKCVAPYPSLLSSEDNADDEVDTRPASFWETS

Compound `CCN(CCO)C(=O)c1ccc(-c2cnc(N)c(OC(C)c3c(Cl)ccc(F)c3Cl)c2)cc1` (centres unmarked) [Example 1, 4-{6-Amino-5-[1-(2,6-dichloro-3-fluorophenyl)ethoxy]-pyridin-3-yl}N-ethyl-N-(2-hydroxyethyl)benzamide] has a Ki of 39 nM and an inhibition at 1 µM of 94%.

Work on `CC(Oc1cc(-c2ccc(C(=O)N(C)CCC#N)cc2)cnc1N)c1c(Cl)ccc(F)c1Cl` (centres unmarked) [Example 2, 4-{6-Amino-5-[1-(2,6-dichloro-3-fluorophenyl)ethoxy]pyridin-3-yl}-N-(2-cyanoethyl)-N-methylbenzamide] yielded a Ki of 33 nM and an inhibition at 1 µM of 95%.

Work on `CC(C)NC(=O)CN1CCN(C(=O)c2ccc(-c3cnc(N)c(OC(C)c4c(Cl)ccc(F)c4Cl)c3)cc2)CC1` (centres unmarked) [Example 3, 2-[4-(4-{6-Amino-5-[1-(2,6-dichloro-3-fluorophenyl)ethoxy]pyridin-3-yl}benzoyl)piperazin-1-yl]-N-isopropylacetamide] yielded a Ki of 26 nM.

Work on `COCCN1CCN(C(=O)c2ccc(-c3cnc(N)c(OC(C)c4c(Cl)ccc(F)c4Cl)c3)cc2)CC1` (centres unmarked) [Example 4] yielded a Ki of 44 nM and an inhibition at 1 µM of 95%.

For `CC(Oc1cc(-c2ccc(C(=O)N3CCS(=O)(=O)CC3)cc2)cnc1N)c1c(Cl)ccc(F)c1Cl` (centres unmarked) [Example 5, 3-[1-(2,6-Dichloro-3-fluorophenyl)ethoxy]-5-{4-[(1,1-dioxidothiomorpholin-4-yl)carbonyl]phenyl)pyridine-2-amine], the Ki was 31 nM and the inhibition at 1 µM was 96%.

Work on `CC(Oc1cc(-c2ccc(C(=O)N3CCC(N(C)C)CC3)cc2)cnc1N)c1c(Cl)ccc(F)c1Cl` (centres unmarked) [Example 6] yielded a Ki of 24 nM and an inhibition at 1 µM of 95%.

`CC(Oc1cc(-c2ccc(C(=O)N3CCN(C4CCN(C)CC4)CC3)cc2)cnc1N)c1c(Cl)ccc(F)c1Cl` (centres unmarked) [Example 7, 3-[1-(2,6-Dichloro-3-fluorophenyl)ethoxy]-5-(4-{[4-(1-methylpiperidin-4-yl)piperazin-1-yl]carbonyl)phenyl)pyridin-2-amine] gave a Ki of 26 nM and an inhibition at 1 µM of 96%.

`CC(Oc1cc(-c2ccc(C(=O)N3CC[N@]4C[C@H]3C4)cc2)cnc1N)c1c(Cl)ccc(F)c1Cl` (some centres unmarked) [Example 8, 5-[4-(1,4-Diazabicyclo[3.1.1]hept-4-ylcarbonyl)phenyl]-3-[1-(2,6-dichloro-3-fluorophenyl)ethoxy]pyridin-2-amine] showed a Ki of 20 nM and an inhibition at 1 µM of 94%.

`CNCCNC(=O)c1ccc(-c2cnc(N)c(OC(C)c3c(Cl)ccc(F)c3Cl)c2)cc1` (centres unmarked) [Example 9, 4-{6-Amino-5-[1-(2,6-dichloro-3-fluorophenyl)ethoxy]pyridin-3-yl}-N-[2-(methylamino)ethyl)benzamide] showed a Ki of 37 nM and an inhibition at 1 µM of 91%.

`CNCCCNC(=O)c1ccc(-c2cnc(N)c(OC(C)c3c(Cl)ccc(F)c3Cl)c2)cc1` (centres unmarked) [Example 10, 4-{6-Amino-5-[1-(2,6-dichloro-3-fluorophenyl)ethoxy]pyridin-3-yl}-N-[3-(methylamino)propyl)benzamide] was tested, and the Ki was 37 nM and the inhibition at 1 µM was 89%.

Work on `CC(Oc1cc(-c2ccc(C(=O)NCCCN)cc2)cnc1N)c1c(Cl)ccc(F)c1Cl` (centres unmarked) [Example 11, 4-(6-Amino-5-[1-(2,6-dichloro-3-fluorophenyl)ethoxy]pyridin-3-yl}-N-(3-aminopropyl) benzamide] yielded a Ki of 45 nM and an inhibition at 1 µM of 86%.

With `CC(Oc1cc(-c2ccc(C(=O)NC3CCNCC3)cc2)cnc1N)c1c(Cl)ccc(F)c1Cl` (centres unmarked) [Example 12, 4-{6-Amino-5-[1-(2,6-dichloro-3-fluorophenyl)ethoxy]pyridin-3-yl}-N-piperidin-4-ylbenzamide] the Ki was 41 nM and the inhibition at 1 µM was 86%.

`CC(Oc1cc(-c2ccc(C(=O)NCC3CCNCC3)cc2)cnc1N)c1c(Cl)ccc(F)c1Cl` (centres unmarked) [Example 13, 4-{6-Amino-5-[1-(2,6-dichloro-3-fluorophenyl)ethoxy]pyridin-3-yl}-N-(piperidin-4-ylmethyl)benzamide] gave a Ki of 48 nM and an inhibition at 1 µM of 87%.

`CC(Oc1cc(-c2ccc(C(=O)NCC3CCNC3)cc2)cnc1N)c1c(Cl)ccc(F)c1Cl` (centres unmarked) [Example 15, 4-{6-Amino-5-[1-(2,6-dichloro-3-fluorophenyl)ethoxy]pyridin-3-yl}-N-(pyrrolidin-3-ylmethyl)benzamide] gave a Ki of 71 nM and an inhibition at 1 µM of 85%.

`CC(Oc1cc(-c2ccc(C(=O)NC3CCCNC3)cc2)cnc1N)c1c(Cl)ccc(F)c1Cl` (centres unmarked) [Example 16, 4-{6-Amino-5-[1-(2,6-dichloro-3-fluorophenyl)ethoxy]pyridin-3-yl}-N-piperidin-3-ylbenzamide] gave a Ki of 44 nM and an inhibition at 1 µM of 91%.

For `CC(Oc1cc(-c2ccc(C(=O)NCCN)cc2)cnc1N)c1c(Cl)ccc(F)c1Cl` (centres unmarked) [Example 17, 4-{6-Amino-5-[1-(2,6-dichloro-3-fluorophenyl)ethoxy]pyridin-3-yl}N-(2-aminoethyl) benzamide], the Ki was 68 nM and the inhibition at 1 µM was 90%.

`CCNCCNC(=O)c1ccc(-c2cnc(N)c(OC(C)c3c(Cl)ccc(F)c3Cl)c2)cc1` (centres unmarked) [Example 18, 4-{6-Amino-5-[1-(2,6-dichloro-3-fluorophenyl)ethoxy]pyridin-3-yl}-N-[2-(ethylamino)ethyl]benzamide] was tested, and the Ki was 36 nM and the inhibition at 1 µM was 90%.

Work on `CC(Oc1cc(-c2ccc(C(=O)N3CCC4(CCNCC4)C3)cc2)cnc1N)c1c(Cl)ccc(F)c1Cl` (centres unmarked) [Example 19, 5-[4-(2,8-Diazaspiro[4.5]dec-2-ylcarbonyl)phenyl]-3-[1-(2,6-dichloro-3-fluorophenyl)ethoxy]pyridin-2-amine] yielded a Ki of 46 nM and an inhibition at 1 µM of 93%.

`CC(Oc1cc(-c2ccc(C(=O)N3CC4CNCC4C3)cc2)cnc1N)c1c(Cl)ccc(F)c1Cl` (centres unmarked) [Example 20, 3-[1-(2,6-Dichloro-3-fluorophenyl)ethoxy]-5-[4-(hexahydropyrrolo[3,4-c]pyrrrol-2 (1H)-ylcarbonyl)phenyl]pyridin-2-amine] showed a Ki of 26 nM and an inhibition at 1 µM of 93%.

For `COc1cc(-c2cnc(N)c(OC(C)c3c(Cl)ccc(F)c3Cl)c2)ccc1C(=O)N1C[C@@H](C)N[C@@H](C)C1` (stereo partly drawn) [Example 23, 3-[1-(2,6-dichloro-3-fluorophenyl)ethoxy]-5-(4-{[(3R,5S)-3,5-dimethylpiperazin-1-yl]carbonyl}-3-methoxyphenyl)pyridin-2-amine], the Ki was 27.2 nM.

With `COc1cc(-c2cnc(N)c(OC(C)c3c(Cl)ccc(F)c3Cl)c2)ccc1C(=O)N1CCCCC1` (centres unmarked) [Example 24, 3-[1-(2,6-dichloro-3-fluorophenyl)ethoxy]-5-[3-methoxy-4-(piperidin-1-ylcarbonyl)phenyl]pyridin-2-amine] the Ki was 1030 nM.

For `CC(Oc1cc(-c2ccc(-c3ccno3)cc2)cnc1N)c1c(Cl)ccc(F)c1Cl` (centres unmarked) [Example 25, 3-[1-(2,6-dichloro-3-fluorophenyl)ethoxy]-5-(4-isoxazol-5-ylphenyl)pyridin-2-amine], the Ki was 87.7 nM.

With `COc1cc(-c2cnc(N)c(OC(C)c3c(Cl)ccc(F)c3Cl)c2)ccc1CO` (centres unmarked) [Example 26, (4-{6-amino-5-[1-(2,6-dichloro-3-fluorophenyl)ethoxy]pyridin-3-yl}-2-methoxyphenyl) methanol] the Ki was 79.5 nM.
